Design in all cases: scale not given: the % may be the effect or the level left
Assay [1] addresses T1, Tyrosine-protein kinase Mer (Homo sapiens) (UniProt Q12866).
T1 sequence (whole entry): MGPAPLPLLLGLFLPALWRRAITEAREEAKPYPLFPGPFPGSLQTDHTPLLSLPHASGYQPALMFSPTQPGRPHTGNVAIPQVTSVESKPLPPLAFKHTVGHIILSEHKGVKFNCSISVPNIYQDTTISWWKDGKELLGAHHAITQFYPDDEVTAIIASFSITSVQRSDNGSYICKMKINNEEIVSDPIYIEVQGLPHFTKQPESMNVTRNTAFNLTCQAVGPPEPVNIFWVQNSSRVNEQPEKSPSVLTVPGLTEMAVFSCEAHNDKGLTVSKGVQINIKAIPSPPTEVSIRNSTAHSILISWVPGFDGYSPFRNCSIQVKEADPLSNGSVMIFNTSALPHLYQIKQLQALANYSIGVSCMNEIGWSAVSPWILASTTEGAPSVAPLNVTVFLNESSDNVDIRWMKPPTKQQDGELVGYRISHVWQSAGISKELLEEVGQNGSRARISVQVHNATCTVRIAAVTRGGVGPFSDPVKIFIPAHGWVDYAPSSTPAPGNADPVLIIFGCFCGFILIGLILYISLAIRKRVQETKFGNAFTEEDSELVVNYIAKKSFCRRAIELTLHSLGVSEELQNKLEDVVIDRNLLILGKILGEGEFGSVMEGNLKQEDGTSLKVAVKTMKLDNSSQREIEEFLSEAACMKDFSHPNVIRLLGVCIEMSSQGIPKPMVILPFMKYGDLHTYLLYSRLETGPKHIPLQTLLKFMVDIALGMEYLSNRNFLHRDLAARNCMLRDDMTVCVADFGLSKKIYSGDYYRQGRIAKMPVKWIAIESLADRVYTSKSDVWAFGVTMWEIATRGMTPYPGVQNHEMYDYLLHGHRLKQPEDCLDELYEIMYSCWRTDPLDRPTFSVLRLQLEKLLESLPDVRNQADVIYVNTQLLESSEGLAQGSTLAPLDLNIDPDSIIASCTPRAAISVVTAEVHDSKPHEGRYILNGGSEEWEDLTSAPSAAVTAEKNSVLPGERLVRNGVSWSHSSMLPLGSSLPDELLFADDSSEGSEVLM
Description: Inhibition of human c-MER assessed as enzyme activity at 1 uM using poly[Glu:Tyr] (4:1) as substrate preincubated for 20 mins followed by [gamma-33P]-ATP addition and measured after 120 mins by radiometric Hot-SpotSM Kinase assay relative to control.

The target of assay [2] is T2, Serine/threonine-protein kinase MAK (Homo sapiens) (UniProt P20794).
T2 sequence (whole entry): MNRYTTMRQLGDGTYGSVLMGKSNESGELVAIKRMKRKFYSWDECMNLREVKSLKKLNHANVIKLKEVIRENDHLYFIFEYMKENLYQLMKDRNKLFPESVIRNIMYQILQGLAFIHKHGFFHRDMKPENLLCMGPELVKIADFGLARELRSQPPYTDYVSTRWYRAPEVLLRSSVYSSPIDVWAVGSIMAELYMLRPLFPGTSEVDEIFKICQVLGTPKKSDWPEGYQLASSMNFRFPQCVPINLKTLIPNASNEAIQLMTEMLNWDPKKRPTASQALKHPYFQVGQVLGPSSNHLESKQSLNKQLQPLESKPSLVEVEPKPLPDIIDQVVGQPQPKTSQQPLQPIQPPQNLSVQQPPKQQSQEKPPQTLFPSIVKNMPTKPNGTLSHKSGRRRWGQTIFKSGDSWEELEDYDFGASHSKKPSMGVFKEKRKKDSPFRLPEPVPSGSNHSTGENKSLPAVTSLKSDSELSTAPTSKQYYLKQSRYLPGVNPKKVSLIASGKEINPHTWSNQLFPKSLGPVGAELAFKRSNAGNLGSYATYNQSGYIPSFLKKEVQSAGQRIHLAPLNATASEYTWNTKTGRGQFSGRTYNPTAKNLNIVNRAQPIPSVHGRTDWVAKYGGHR
In words: Inhibition of human MAK assessed as enzyme activity at 1 uM using myelin basic protein as substrate preincubated for 20 mins followed by [gamma-33P]-ATP addition and measured after 120 mins by radiometric Hot-SpotSM Kinase assay relative to control.

Assay [3] has as its target T3, Serine/threonine-protein kinase BRSK1 (Homo sapiens) (UniProt Q8TDC3).
T3 sequence (whole entry): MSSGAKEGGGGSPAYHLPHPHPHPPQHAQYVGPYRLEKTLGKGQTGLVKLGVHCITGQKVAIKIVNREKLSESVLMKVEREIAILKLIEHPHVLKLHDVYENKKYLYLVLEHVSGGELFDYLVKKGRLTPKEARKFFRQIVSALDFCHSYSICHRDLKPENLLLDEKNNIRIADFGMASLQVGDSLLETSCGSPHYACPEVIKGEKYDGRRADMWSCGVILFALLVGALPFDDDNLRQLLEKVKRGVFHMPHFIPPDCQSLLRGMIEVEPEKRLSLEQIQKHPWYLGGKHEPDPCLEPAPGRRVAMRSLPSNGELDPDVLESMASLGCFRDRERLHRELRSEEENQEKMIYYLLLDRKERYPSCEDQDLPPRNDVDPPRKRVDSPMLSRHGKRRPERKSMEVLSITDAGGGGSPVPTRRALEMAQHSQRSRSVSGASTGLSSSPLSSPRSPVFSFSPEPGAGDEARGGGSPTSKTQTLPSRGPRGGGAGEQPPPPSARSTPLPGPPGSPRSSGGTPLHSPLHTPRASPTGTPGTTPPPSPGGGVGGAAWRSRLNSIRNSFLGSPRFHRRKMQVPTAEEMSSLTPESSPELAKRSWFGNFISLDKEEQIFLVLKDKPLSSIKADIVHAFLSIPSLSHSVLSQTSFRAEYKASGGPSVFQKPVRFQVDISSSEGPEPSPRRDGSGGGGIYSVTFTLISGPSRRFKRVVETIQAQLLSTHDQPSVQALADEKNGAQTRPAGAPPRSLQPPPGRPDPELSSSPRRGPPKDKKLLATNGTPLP
In words: Inhibition of human BRSK1 assessed as enzyme activity at 1 uM using KKKVSRSGLYRSPSMPENLNRPR as substrate preincubated for 20 mins followed by [gamma-33P]-ATP addition and measured after 120 mins by radiometric Hot-SpotSM Kinase assay relative to control.

This is an account of results in ChEMBL document CHEMBL5715954, “Silencing c-Myc translation as a therapeutic strategy through targeting PI3Kδ and CK1ε in hematological malignancies” (Blood, 2017).

The structures appear in SMILES notation.

Regarding `C[C@H](Nc1ncnc2nc[nH]c12)c1cc2cccc(Cl)c2c(=O)n1-c1ccccc1`, the Activity in assay [1] was 103%; in assay [2], 98.5%; in assay [3], 92.5%.

Consider `CC[C@H](Nc1ncnc2[nH]cnc12)c1nc2cccc(F)c2c(=O)n1-c1ccccc1`, for which the Activity in assay [1] was 104%; in assay [2], 92.5%; in assay [3], 89.1%.

As for `CC(C)Oc1ccc(-c2nn([C@@H](C)c3oc4ccc(F)cc4c(=O)c3-c3cccc(F)c3)c3ncnc(N)c23)cc1F` [UMBRALISIB], the Activity in assay [1] was 102%; in assay [2], 96.5%; in assay [3] it was 87.9%.
